Measured values: patent US20120328602A1, “COMPOSITIONS AND METHODS FOR TREATING CONDITIONS ASSOCIATED WITH CERAMIDE BIOSYNTHESIS” (priority 2007, published 2012)
“Also recorded” adds a separate entry of the source.

Assays:
ceramide = ceramide in spinal cord dorsal horn by immunohistochemistry and ESI-MS/MS (Example 1); type: in vivo, mice
[1] = system: serine palmitoyl transferase (SPT); experiment: serine palmitoyl transferase (SPT) activity; type: in vivo, mice; details: repeated morphine, tolerant mice vs vehicle
Experimental: SPT activity was determined by measuring the incorporation of [^3H] serine into 3-ketosphinganine following the method previously described (Williams et al., 1984). The results were normalized by the samples' protein concentration.

neutral SMase = experiment: sphingomyelinase activity in spinal cord tissues, neutral isoform (Amplex Red kit); type: in vivo, mice; details: repeated morphine vs vehicle (not shown)
Experimental: Sphingomyelinase activity was measure using Amplex® Red Sphingomyelinase Assay Kit (Molecular Probes, Eugene, Oreg.) following manufacturer's instructions. First, spinal cord tissues were homogenized in buffers for each specific assay as previously described (Dobrowsky and Kolesnick, 2001). For the acid isoforms, Na acetate (100 mM and pH 5.0) lysis buffer was used. 2 mM EDTA was added to the lysis buffer for detection of the insoluble isoform. For neutral isoform detection, the tissues were homogenized in Hepes (20 mM, pH 7.4) lysis buffer. The kinetics for sphingomyelinase activity was measured in a fluorescence microplate reader for two hours followed by normalization per protein concentration of the sample. Hydrogen peroxide and sphingomyelinase were used as positive controls.

[2] = system: manganese superoxide dismutase (MnSOD); experiment: MnSOD nitration by immunoprecipitation and western blot; type: in vivo, mice
Experimental: Animals were rapidly sacrificed (<1 min) in a CO2 chamber and the dorsal portion of the spinal cord lumbar region enlargement removed and stored at −80° C. until used. Cytosolic and nuclear extracts were prepared as previously described (Bethea et al., 1998), with minor modifications. Tissues from each mouse were suspended in extraction Buffer A (0.2 mM PMSF, […], 20 μM leupeptin, 1 mM sodium orthovanadate), homogenized for two minutes, and centrifuged at 1,000×g for ten minutes at 4° C. Supernatants were collected as the cytosolic fraction. […] The levels of IκB-α, phospho-NF-κB p65 (serine 536), were quantified in cytosolic fraction from spinal cord tissue, while NF-κB p65 levels were quantified in nuclear fraction. […] Manganese superoxide dismutase (MnSOD) nitration was determined with western blot analysis of immunoprecipitated protein complex in total lysates using antibodies specific to these proteins. […] The relative expression of the protein levels as the band density for IκB-α (˜37 kDa), phospho NF-κB (65 kDa), NF-κB p65 (75 kDa), MnSOD (˜29 kDa), GFAP (˜50 kDa), and Iba1(˜17 kDa) was quantified by scanning of the X-ray films with GS-700 Imaging Densitometer (BIO-RAD U.S.A.) and a computer program (Molecular Analyst, IBM).

TNF-α = TNF-α in dorsal horn of lumbar spinal cord by ELISA; type: in vivo, mice; details: morphine group vs vehicle group, n=10
IL-1β = IL-1β in dorsal horn of lumbar spinal cord by ELISA; type: in vivo, mice; details: morphine group vs vehicle group, n=10
IL-6 = IL-6 in dorsal horn of lumbar spinal cord by ELISA; type: in vivo, mice; details: morphine group vs vehicle group, n=10
mice = experiment: Rotarod motor function test; type: in vivo; details: myriocin 0.4 mg/kg, FB1 1 mg/kg, D609 40 mg/kg; fifteen, thirty, and sixty minutes after administration; n=4; vs vehicle
Experimental: Mice were trained before experimentation for their ability to remain for one-hundred twenty seconds on a revolving Rotarod apparatus (accelerating units increase from 3.5 to 35 rpm in five minutes). Mice (n=4 per group) were injected with an i.p. injection of the highest dose of FB1 (1 mg/kg), myriocin (0.4 mg/kg), D609 (40 mg/kg) used to block antinociceptive tolerance or its vehicle. Mice (n=4 per group) were tested and examined for motor […] on the Rotarod at fifteen, thirty, and sixty minutes after drug administration as described in the method section. The latency time to fall off the Rotarod was determined. A cut-off time of one-hundred twenty seconds was used.

[3] = system: manganese superoxide dismutase (MnSOD); experiment: measurement of MnSOD enzymatic activity, spectrophotometric; type: in vivo, mice; details: FB1 0.25-1 mg/kg/d with morphine, n=5
Experimental: Dorsal halves of the spinal cord lumbar region enlargement (L4-L6) were homogenized with 10 mM phosphate buffered saline (pH 7.4) in a Polytron homogenizer and then sonicated on ice for one minute (twenty seconds, three times). The sonicated samples were subsequently centrifuged at 1,100×g for ten minutes. SOD activity was measured in the supernatants as described previously (Wang et al., 2004). A competitive inhibition assay was performed which used xanthine-xanthine oxidase-generated superoxide to reduce nitroblue tetrazolium (NBT) to blue tetrazolium salt. The reaction was performed in sodium carbonate buffer (50 mM, pH 10.1) containing EDTA (0.1 mM), nitroblue tetrazolium (25 μM), xanthine and xanthine-oxidase (0.1 mM and 2 nM respectively; Boehringer, Germany). The rate of NBT reduction was monitored spectrophotometrically (Perkin Elmer Lambda 5 Spectrophotometer, Milan, Italy) at 560 nm. The amount of protein required to inhibit the rate of NTB reduction by 50% was defined as one unit of enzyme activity. Cu/Zn-SOD activity was inhibited by performing the assay in the presence of 2 mM NaCN after pre-incubation for thirty minutes. Enzymatic activity was expressed in units per milligram of protein (Wang et al., 2004).

Row | SMILES | ceramide in dorsal horn, immunohistochemistry with anti-ceramide antibody (ceramide; repeated administration of morphine over four days) | predominant ceramide species increased in dorsal horn tissues, ESI-MS/MS (ceramide; repeated morphine administration, n=3) | enzymatic activity of serine palmytoyl transferase (SPT) [1] | activity of the neutral SMase (neutral SMase) | post-translational nitration of MnSOD ([2]; mouse, in vivo) | TNF-α in dorsal horn tissues (TNF-α) | IL-1β in dorsal horn tissues (IL-1β) | IL-6 in dorsal horn tissues (IL-6) | increase in ceramide by immunohistochemical analysis and ESI-MS/MS (ceramide; co-administration of morphine with FB1 1 mg/kg) | Rotarod motor function deficits (mice) | post-translational nitration of MnSOD ([2]; morphine plus FB1 1 mg/kg/d, n=5, ±SEM) | loss of MnSOD enzymatic activity [3]
1 | CN1CC[C@]23c4c5ccc(O)c4O[C@H]2[C@@H](O)C=C[C@H]3[C@H]1C5 [morphine] | appearance of ceramide in the superficial layers of the dorsal horn | 18:0, 20:0, and 22:0 ceramide | increased enzymatic activity | not changed compared to vehicle | 850±70 densitometry units | increased immunoreactivity; also recorded: significant increase | increased immunoreactivity; also recorded: significant increase | increased immunoreactivity; also recorded: significant increase | – | – | – | –
2 | CCCC[C@@H](C)[C@@H](OC(=O)C[C@@H](CC(=O)O)C(=O)O)[C@H](C[C@@H](C)C[C@H](O)CCCC[C@@H](O)C[C@H](O)[C@H](C)N)OC(=O)C[C@@H](CC(=O)O)C(=O)O [FB1, Fumonisin B1] | – | – | – | – | – | – | – | – | prevented | did not show signs of Rotarod deficits | 350±45 densitometry units | restored in a dose-dependent manner
